Tests used:
[1] = Stability in fresh human whole blood; assay type: in vitro ADME; settings: 0.5 μM, percent unchanged test compound
Experimental: (§1) Stability of compounds were determined in fresh human whole blood with K2EDTA as the anticoagulant (stored refrigerated at 2-8° C. and used within 7 days of receipt). The experiment was conducted with three replicates for each time point. Whole blood, pre-incubated at 37° C. for 10-15 minutes, was fortified with a solution of test compound for a final concentration of 0.5 μM and mixed for 30 sec. At intervals (0, 0.5, 1 and 2 hr), three 50 μL aliquots were combined with 200 μL (each) of an ice-cold solution of the internal standard (carbutamide 500 ng/mL in acetonitrile). The samples were vortexed for 30 sec and then centrifuged at 16,100 g for 5 min. The supernatant was analyzed by LC-MS/MS. The MS peak area ratio of the test compounds versus the internal standard was calculated and percent unchanged test compound was calculated for each time point using this ratio.

fresh human hepatocytes = test: Release of active metabolite in fresh human hepatocytes; assay type: in vitro ADME; settings: 10 μM compound; for FHH TP Cmax: fresh human hepatocytes; for FHH TP AUC: fresh human hepatocytes, 6, 24 and 48 hours
Experimental: (§2) Plates of fresh human and mouse hepatocytes were obtained on ice. The medium was removed and replaced with hepatocyte culture medium (William's E supplemented with penicillin-streptomycin, 1% L-glutamine, 1% insulin-transferrin-selenium and 0.1 μM Dexamethasone (Invitrogen) or with Invitro GRO HI medium complemented with Torpedo antibiotics (Celsis)). Cells were left overnight in an incubator at 37° C. to acclimatize to culture and the medium.
(§3) Hepatocyte incubations were conducted at a final volume of 0.5 mL hepatocyte culture medium/well (0.8 million cells/well for human and 0.5 million cells/well for mouse; 12 well plate no overlay, collagen coat). Culture medium from overnight incubation of cells was removed and replaced with fresh medium, pre-warmed to 37° C., containing 10 μM of test compound from a stock solution in DMSO (final DMSO concentration was 0.1%). At each specific time point, incubation medium was removed and cell monolayers were carefully washed two times with ice-cold PBS. Following the last wash, all PBS was carefully removed and 1.0 mL of extraction solution (ice-cold 70% methanol/30% water) added. Cells were scraped off and suspended in the extraction solution, transferred to 2 mL polypropylene microfuge tubes and intracellular contents extracted overnight at −20° C.
(§4) After the overnight treatment the cellular extracts were prepared by centrifugation at 16,000×g for 10 min to remove cellular debris. The remaining sample was then dried using a refrigerated centrivap concentrator. Dry extracts were reconstituted in 1000 μL of HPLC-grade water and centrifuged at 16,000×g for 10 min. Aliquots (100 μL each) of the supernatant were transferred into a 96 well plate and internal standard (4 ng/mL final concentration) was added as the internal standard (IS) for LC-MS/MS analysis.
(§5) The incubation time points were 6, 24 and 48 hours for human hepatocytes and 1, 4, 8, 12 and 24 hours for mouse hepatocytes.

[2] = Stability in simulated intestinal fluid; assay type: in vitro ADME; settings: 100 μM, 2 hours at 37° C., percent of the peak area at time zero
Experimental: Simulated gastric and intestinal fluids containing pepsin and pancreatin respectively were prepared according to the U.S. Pharmacopoeia USP291 procedure (www.pharmacopeia.cn/v29240/usp29nf24s0_ris1s126.html). Compounds (final concentration 100 μM) were incubated in duplicate in the appropriate fluid for 2 hours at 37° C. The samples were quenched with 200 μl cold acetonitrile, vortexed for 30 seconds and then centrifuged at 16,100 g for 10 min. The supernatants were analyzed by HPLC on a C-18 column with UV detection at 252 nm. The time 0 samples were prepared by adding SGF or SIF fluid to the quenching solvent followed by the test compound. Stability of the compounds was determined by peak area of the test compounds after incubation and calculated as percent of the peak area observed at time zero.

Zluc cells = test: cytotoxicity evaluation (CellTiter-Blue Cell Viability Assay); settings: read-out: HCV Replicon CC50; Zluc cells, CellTiter-Blue
HCV genotype 1b replicon = test: HCV Replicon Assay; assay type: cell-based; settings: Zluc cells (Huh-7-derived, HCV genotype 1b replicon, luciferase reporter), 72 hours; read-out: HCV Replicon EC50
Experimental: Huh-7-derived cell line (Zluc) that harbors an HCV genotype 1b replicon and a luciferase reporter gene was grown in Dulbecco's Modified Eagle Medium (DMEM) supplemented with 10% fetal bovine serum, 2 mM GlutaMAX, 1% MEM nonessential amino acids, 100 IU/mL penicillin, 100 μg/mL streptomycin, and 0.5 mg/mL Geneticin® (G418). For dose response testing the cells were seeded in 96-well plates at 7.5×10^3 cells per well in a volume of 50 μL, and incubated at 37° C./5% CO2. Drug solutions were made up freshly in Huh-7 media as 2× stocks. Ten additional 5-fold dilutions were prepared from these stocks in DMEM without G418. At least three hours after Zluc cells were seeded, drug treatment was initiated by adding 50 μL of drug dilutions to the plates in duplicate. Final concentrations of drug ranged from 100 μM to […]. Cells were then incubated at 37° C./5% CO2. Alternatively, compounds were tested at two concentrations (1 μM and 10 μM). […] For this, media was removed from the plates via gentle tapping. Fifty microliters of ONE-glo luciferase assay reagent was added to each well. The plates were shaken gently for 3 min at room temperature and luminescence was measured on a Victor^3 V 1420 multilabel counter (Perkin Elmer) with a 1 second read time using a 700 nm cut-off filter. The EC50 values were calculated from dose response curves from the resulting best-fit equations determined by Microsoft Excel and XLfit 4.1 software. When screening at two fixed concentrations, the results were expressed as % inhibition at 1 μM and 10 μM.

mouse hepatocytes = test: Release of active metabolite in mouse hepatocytes; assay type: in vitro ADME; settings: 10 μM compound; for MsH AUC: mouse hepatocytes, 1, 4, 8, 12 and 24 hours
Experimental: as §2, §3, §4, §5

[3] = Plasma pharmacokinetics following a single oral dose in CD-1 mice; assay type: in vivo; settings: single oral dose 25 mg/kg in PEG 200, CD-1 male mice, given at 1 μmol/kg
Experimental: (§6) A single oral dose of test compound at 25 mg/kg in PEG 200 (dose volume 5 mL/kg) was administered to nine CD-1 male mice. Five untreated animals were used for the collection of control plasma and liver. Terminal plasma and liver samples were collected from three animals per time point at 4, 12 and 24 hours post dose. Liver specimens were collected from all animals immediately after the incision. Freezing forceps stored in liquid nitrogen were used to freeze the liver before excision.
Plasma samples were analyzed for 2′-methylguanosine (2′-MeG) by LC-MS/MS. The internal standard (IS) was 2′-MeG-D3. For protein precipitation and extraction, each plasma sample (50 μL) was treated with 500 μL of 0.2% formic acid in acetonitrile and 20 μL of the internal standard working solution. After vortexing and centrifugation, 500 μL of the sample extracts were transferred to a new plate, dried under N2 at ˜28° C. and reconstituted with 75 μL of 0.2% FA in water. The extracts were chromatographed on an Aquasil C18 column using a gradient system of 0.2% formic acid in water and acetonitrile. The analytes were detected and quantified by tandem mass spectrometry in positive ion mode on an MDS Sciex API5000 equipped with a Turbo Ionspray® interface. The calibration range was 0.500 (LLOQ) to 200 ng/mL in mouse plasma.

[4] = Liver pharmacokinetics following a single oral dose in CD-1 mice; assay type: in vivo; settings: single oral dose 25 mg/kg in PEG 200, CD-1 male mice, given at 1 μmol/kg
Experimental: as §6
Liver samples were analyzed for the active species 2′-methylguanosine triphosphate (2′-MeGTP) by LC-MS/MS. 2′-MeGTP levels were assayed by homogenizing (on ice) a known weight of mouse liver with 4× volume of 0.95 M trichloroacetic acid (TCA). Internal standard solution was added to the homogenate followed by neutralization with 20% ammonium hydroxide solution and addition of 500 μL 1% formic acid. The tissue samples were extracted by weak anion exchange solid phase extraction (SPE). Post extraction, the eluates were evaporated under nitrogen, followed by reconstitution before injection onto the LC-MS/MS system. The samples were chromatographed on a Luna NH2 column using a gradient system of ammonium acetate (1 mM to 20 mM and pH 8.0 to pH 10.0) in water and acetonitrile (70:30). The analyte was detected and quantified by tandem mass spectrometry in positive ion mode on an API4000 equipped with a Turbo Ionspray® interface. The calibration range was 10 to 10000 pmol/mL in mouse liver homogenate (50 to 50000 pmol/g of mouse liver).

Stability in mouse blood = assay type: in vitro ADME; settings: on ice, percent unchanged test compound
Experimental: as §1
The stability in mouse blood was determined on ice at 0, 0.5 and 1 hr as herein.

CCOC(=O)CCOP1(=O)OC[C@H]2O[C@@H](n3cnc4c(OCC)nc(N)nc43)[C@](C)(F)[C@@H]2O1 (single isomer, unassigned; diastereomer 1) [Compound 8 Diastereomer 1]
Stability WB_Human (37° C.; 2 hr) [1]: 89% | FHH TP Cmax (fresh human hepatocytes): BLD^a | FHH TP AUC (fresh human hepatocytes): BLD^a | Stability SIF [2]: 96% | CC50 (Zluc cells): > 50 µM | EC50 (HCV genotype 1b replicon): < 0.25 µM

CCOc1nc(N)nc2c1ncn2[C@@H]1O[C@@H]2COP(=O)(OCCC(=O)OC(C)C)O[C@H]2[C@@]1(C)F (single isomer, unassigned; diastereomer 1) [Compound 21 Diastereomer 1]
Stability WB_Human (37° C.; 2 hr) [1]: 86% | FHH TP Cmax (fresh human hepatocytes): BLD^a | FHH TP AUC (fresh human hepatocytes): BLD^a | Stability SIF [2]: 91% | MsH AUC (mouse hepatocytes): BLD^a

CCOc1nc(N)nc2c1ncn2C1OC2COP(=O)(OCC(NC(=O)OC)C(=O)OC(C)C)OC2C1(C)O (single isomer, unassigned; diastereomer 1) [Compound 14 Diastereomer 1]
Stability WB_Human (37° C.; 2 hr) [1]: 62% | FHH TP Cmax (fresh human hepatocytes): 19 pmol/mill cells | FHH TP AUC (fresh human hepatocytes): 224 pmol · hr/mill cells | Stability SIF [2]: 88% | CC50 (Zluc cells): < 50 µM | EC50 (HCV genotype 1b replicon): < 0.25 µM

CC(C)OC(=O)CCCOP1(=O)OC[C@H]2O[C@@H](n3cnc4c(=O)[nH]c(N)nc43)[C@](C)(F)[C@@H]2O1 (single isomer, unassigned; diastereomer 2) [Compound 6 Diastereomer 2]
CC50 (Zluc cells): > 50 µM | MsH AUC (mouse hepatocytes): BLD^a | EC50 (HCV genotype 1b replicon): < 0.25 µM | Ms Plasma 2′-MeG AUC ([3]; 25 mg/kg): 54 pmol · hr/mL at 1 μmol/kg | Ms Plasma 2′-MeG Cmax ([3]; 25 mg/kg): 7.2 pmol/mL at 1 μmol/kg | Ms Liver 2′-MeGTP AUC ([4]; 25 mg/kg): 530 pmol · hr/g at 1 μmol/kg

CCOc1nc(N)nc2c1ncn2C1OC2COP(=O)(Oc3ccc(CC(NC(=O)OC)C(=O)OC(C)C)cc3)OC2C1(C)F (single isomer, unassigned; diastereomer 2) [Compound 13 Diastereomer 2]
Stability WB_Human (37° C.; 2 hr) [1]: 70% | FHH TP Cmax (fresh human hepatocytes): 34 pmol/mill cells | FHH TP AUC (fresh human hepatocytes): 812 pmol · hr/mill cells | Stability SIF [2]: 72% | CC50 (Zluc cells): > 50 µM | Stability WB_Mouse (ice; 1 hr) (Stability in mouse blood): 1% | EC50 (HCV genotype 1b replicon): < 0.25 µM

CCOc1nc(N)nc2c1ncn2[C@@H]1O[C@@H]2COP(=O)(OCCCC(=O)OC(C)C)O[C@H]2[C@@]1(C)F (single isomer, unassigned; diastereomer 2) [Compound 3 Diastereomer 2]
FHH TP Cmax (fresh human hepatocytes): 146 pmol/mill cells | FHH TP AUC (fresh human hepatocytes): 4574 pmol · hr/mill cells | MsH Cmax (mouse hepatocytes; mouse hepatocytes): 91 pmol/mill cells | MsH AUC (mouse hepatocytes): 3265 pmol · hr/mill cells | Ms Plasma 2′-MeG AUC [3]: 160 pmol · hr/mL at 1 μmol/kg | Ms Plasma 2′-MeG Cmax [3]: 17 pmol/mL at 1 μmol/kg | Ms Liver 2′-MeGTP AUC [4]: 3200 pmol · hr/g at 1 μmol/kg

CCOC(=O)CCOP1(=O)OC[C@H]2O[C@@H](n3cnc4c(OCC)nc(N)nc43)[C@](C)(F)[C@@H]2O1 (single isomer, unassigned; diastereomer 2) [Compound 8 Diastereomer 2]
Stability WB_Human (37° C.; 2 hr) [1]: 34% | FHH TP Cmax (fresh human hepatocytes): BLD^a | FHH TP AUC (fresh human hepatocytes): BLD^a | Stability SIF [2]: 94% | CC50 (Zluc cells): > 50 µM | EC50 (HCV genotype 1b replicon): < 0.25 µM

CCOc1nc(N)nc2c1ncn2[C@@H]1O[C@@H]2COP(=O)(OCCC(=O)OC(C)C)O[C@H]2[C@@]1(C)O (single isomer, unassigned; diastereomer 2) [Compound 22 Diastereomer 2]
Stability WB_Human (37° C.; 2 hr) [1]: 88% | FHH TP Cmax (fresh human hepatocytes): 28 pmol/mill cells | FHH TP AUC (fresh human hepatocytes): 742 pmol · hr/mill cells | Stability SIF [2]: 101% | CC50 (Zluc cells): > 50 µM | MsH AUC (mouse hepatocytes): BLD^a | EC50 (HCV genotype 1b replicon): < 0.25 µM

CCOc1nc(N)nc2c1ncn2[C@@H]1O[C@@H]2COP(=O)(OCCCC(=O)OC(C)C)O[C@H]2[C@@]1(C)F (single isomer, unassigned; diastereomer 1) [Compound 3 Diastereomer 1]
Stability WB_Human (37° C.; 2 hr) [1]: 20.5% | Stability SIF [2]: 92% | CC50 (Zluc cells): < 50 µM | Stability WB_Mouse (ice; 1 hr) (Stability in mouse blood): 14% | EC50 (HCV genotype 1b replicon): < 0.25 µM

CC(C)OC(=O)CCCOP1(=O)OC[C@H]2O[C@@H](n3cnc4c(=O)[nH]c(N)nc43)[C@](C)(F)[C@@H]2O1 (single isomer, unassigned; diastereomer 1) [Compound 6 Diastereomer 1]
CC50 (Zluc cells): > 50 µM | MsH AUC (mouse hepatocytes): BLD^a | EC50 (HCV genotype 1b replicon): 1 to 10 µM | Ms Plasma 2′-MeG AUC ([3]; 25 mg/kg): 13 pmol · hr/mL at 1 μmol/kg | Ms Plasma 2′-MeG Cmax ([3]; 25 mg/kg): 1.3 pmol/mL at 1 μmol/kg | Ms Liver 2′-MeGTP AUC ([4]; 25 mg/kg): 35 pmol · hr/g at 1 μmol/kg
